Measured values from patent US20230227466A1, “SUBSTITUTED THIENOPYRIMIDINES THAT INTERACT WITH THE RAS SUPERFAMILY FOR THE TREATMENT OF CANCERS, INFLAMMATORY DISEASES, RASOPATHIES, AND FIBROTIC DISEASE” (SHY Therapeutics, LLC, priority 2020, published 2023).
Where two headings read alike, the source gives them in different places.

Experiments:
KRas G12C mutant = target: T1, KRas G12C mutant (Homo sapiens, UniProt P01116, G12C); test: Ras GTP binding domain inhibition assay (labeled-GTP competition, cell-free)
T1 construct: made in house
Outline: (§1)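 His-tagged GTPases were coated at 10-30 μg/mL onto nickel plates overnight at 4° C, then exposed to compound (20 μM, or serial dilutions for IC50) in buffer with 1% DMSO for 3 h at room temperature, with or without 10-30 μg/mL His-Sos (556-1049) in the final hour. Cy3- or Cy5-GTP (100 nM, 45 min) binding was measured after washing.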

KRas G12D mutant = target: T2, KRas G12D mutant (Homo sapiens, UniProt P01116, G12D); test: as above
T2 construct: made in house
Outline: as §1

KRas Q61H mutant = target: T3, KRas Q61H mutant (Homo sapiens, UniProt P01116, Q61H); test: as above
T3 construct: made in house
Outline: as §1

[1] = system: ERK1/2 phosphorylation in Panc-1 cells; test: Western ERK1/2 cell-based phosphorylation assay; set-up: species or system human; conditions: at 10 μM, values in brackets < > are activation %, not inhibition
Procedure: Cell lines: Human tumor-derived pancreatic cancer cell line Panc-1 was purchased from American Type Culture Collection and grown in complete DMEM-High Glucose, supplemented with penicillin (100 U/mL), streptomycin (100 μg/mL), and 10% heat-inactivated FBS at 37° C. in a humidified incubator with 5% CO2.
Method: Cells were plated at 350000 cells/well density in a 12-well plate, allowed 3 hours to adhere to the plate, then starved in the appropriate medium in the presence of 0.5% FBS overnight. The small molecules to be tested were added to the cells in the final concentration of 10 μM in the presence of 0.3% DMSO for 6 hours incubation at 37° C. For IC50 value determination, serial dilutions of compounds were added to cells under the same conditions. Next, cells were stimulated with 1.5 ng/ml EGF for 15 minutes then cells were lysed with lysis buffer containing 1% Triton X-100, EDTA, and Halt™ Protease & Phosphatase Inhibitor Cocktail (Thermo Scientific). Protein concentration was assessed by BCA protein assay (Thermo Scientific). Phosphorylation level of ERK1/2 was determined by western blot.
Western blot protocol: Equal amounts of protein (15-50 μg) were separated by SDS-PAGE and transferred to nitrocellulose membranes (Invitrogen by Thermo Fisher Scientific). The membrane was stained with Ponceau S Stain (Boston BioProducts) to verify uniform protein loading. Membranes were blocked with 10% milk and phosphorylation levels of ERK1/2 were assessed by incubating overnight at 4° C. with anti-phospho-p44/42 (Thr202/Tyr204) antibody (Cell Signaling) followed by HRP-conjugated secondary antibody (Jackson Immunoresearch, West Grove, Pa.). Bands were incubated in Amersham ECL Prime Western Blotting Detection Reagent (GE Healthcare) and visualized using the ChemiDoc MP imaging system (Bio-Rad). Protocol for Western AKT cell-based phosphorylation assay

KRas wild type = KRas wild type (Homo sapiens, UniProt P01116); test: Ras GTP binding domain inhibition assay (labeled-GTP competition, cell-free); set-up: made in house
Outline: as §1

Rac-1 = Rac-1 (Homo sapiens, UniProt P63000); test: as above; set-up: made in house
Outline: as §1

Rho-A = Rho-A (Homo sapiens, UniProt P61586); test: as above; set-up: made in house
Outline: as §1

[2] = with SOS, read-out: KRas G12C mutant + SOS: % inh.
[3] = without SOS, read-out: KRas G12C mutant: % inh.
[4] = with SOS, read-out: KRas G12D mutant + SOS: % inh.
[5] = without SOS, read-out: KRas G12D mutant: % inh.
[6] = with SOS, read-out: KRas Q61H mutant + SOS: % inh.
[7] = without SOS, read-out: KRas Q61H mutant: % inh.
[8] = with SOS, read-out: KRas wild type + SOS: % inh.
[9] = without SOS, read-out: KRas wild type: % inh.
[10] = without SOS, read-out: Rac-1: % inh.
[11] = without SOS, read-out: Rho-A: % inh.
[12] = with SOS, read-out: Rac-1 + SOS: % inh.
[13] = with SOS, read-out: Rho-A + SOS: % inh.

Compound	inhibition at 20 µM (KRas G12C mutant; [2]) [%]	inhibition at 20 µM (KRas G12C mutant; [3]) [%]	inhibition at 20 µM (KRas G12D mutant; [4]) [%]	inhibition at 20 µM (KRas G12D mutant; [5]) [%]	inhibition at 20 µM (KRas Q61H mutant; [6]) [%]	inhibition at 20 µM (KRas Q61H mutant; [7]) [%]	% inh of ERK1/2 phosphorylation in PANC-1 [1]	inhibition at 20 µM (KRas wild type; [8]) [%]	inhibition at 20 µM (KRas wild type; [9]) [%]	inhibition at 20 µM (Rac-1; [10]) [%]	inhibition at 20 µM (Rho-A; [11]) [%]	IC50 (KRas Q61H mutant; with SOS) [µM]	inhibition at 20 µM (Rac-1; [12]) [%]	inhibition at 20 µM (Rho-A; [13]) [%]
CO[C@H]1CC[C@@H](Nc2nc(-c3nccn3C)nc3sc(-c4ccn(C(C)C)n4)c(C)c23)CC1 [Compound 55]	26 to 50	26 to 50	26 to 50	51 to 75	26 to 50	1 to 25	D (76-100% inhibition)	1 to 25	1 to 25	0	51 to 75			
CO[C@H]1CC[C@@H](Nc2nc(-c3nccn3C)nc3sccc23)C1 (racemic) [Compound 10, Rac-N-((1R,3S)-3-methoxycyclopentyl)-2-(1-methyl-1H-imidazol-2-yl)thieno[2,3-d]pyrimidin-4-amine]	76 to 100	76 to 100	51 to 75	51 to 75	76 to 100	51 to 75	A (1-25% inhibition)	76 to 100	51 to 75	76 to 100	76 to 100	5 to 10	76 to 100	76 to 100
COCCCn1ccnc1-c1nc(O)c2scc(-c3ccccn3)c2n1 [Compound 79, 2-(1-(3-Methoxypropyl)-1H-imidazol-2-yl)-7-(pyridin-2-yl)thieno[3,2-d]pyrimidin-4-ol]	51 to 75	51 to 75	51 to 75	51 to 75	51 to 75	51 to 75	0 (0% inhibition)	51 to 75	76 to 100	51 to 75	76 to 100			
CO[C@H]1CC[C@@H](Nc2nc(C(N)=O)nc3sc(-c4ccn(C(C)C)n4)cc23)C1 (racemic) [Compound 17, Rac-6-(1-isopropyl-1H-pyrazol-3-yl)-4-(((1R,3S)-3-methoxycyclopentyl)amino)thieno[2,3-d]pyrimidine-2-carboxamide]	0	0	0	0	0	1 to 25	A (1-25% inhibition)	1 to 25	1 to 25	0	26 to 50	> 10	1 to 25	0
CO[C@H]1CC[C@@H](Nc2nc(C(=O)Nc3ccccc3)nc3sccc23)C1 (racemic) [Compound 15, rac-4-(((1R,3S)-3-Methoxycyclopentyl)amino)-N-phenylthieno[2,3-d]pyrimidine-2-carboxamide]	0	1 to 25	0	0	0	1 to 25	0 (0% inhibition)	0	1 to 25	0	0	> 10	0	0
CO[C@@H]1CCCN(c2nc(-c3nccn3C)nc3sc(-c4ccn(C(C)C)n4)c(C)c23)C1 [Compound 50, (R)-6-(1-Isopropyl-1H-pyrazol-3-yl)-4-(3-methoxypiperidin-1-yl)-5-methyl-2-(1-methyl-1H-imidazol-2-yl)thieno[2,3-d]pyrimidine]	51 to 75	26 to 50	1 to 25	0	51 to 75	26 to 50	D (76-100% inhibition)	51 to 75	51 to 75	0	76 to 100			
CC(C)NC(=O)c1nc(O)c2scc(-c3ccccn3)c2n1 [Compound 20, 4-Hydroxy-N-isopropyl-7-(pyridin-2-yl)thieno[3,2-d]pyrimidine-2-carboxamide]	26 to 50	51 to 75	26 to 50	26 to 50	26 to 50	26 to 50	0 (0% inhibition)	1 to 25	51 to 75	26 to 50	26 to 50	> 10	26 to 50	26 to 50
COC1CCN(c2nc(-c3nccn3C)nc3sc(-c4ccn(C(C)C)n4)c(C)c23)C1 (racemic) [Compound 34, rac-6-(1-Isopropyl-1H-pyrazol-3-yl)-4-(3-methoxypyrrolidin-1-yl)-5-methyl-2-(1-methyl-1H-imidazol-2-yl)thieno[2,3-d]pyrimidine]	76 to 100	76 to 100	76 to 100	76 to 100	76 to 100	76 to 100	D (76-100% inhibition)	76 to 100	76 to 100	76 to 100	76 to 100		76 to 100	76 to 100
Cc1c(-c2ccn(C(C)C)n2)sc2nc(-c3nccn3C)nc(NC[C@H]3CCC(=O)N3)c12 [Compound 52, (R)-5-(((6-(1-Isopropyl-1H-pyrazol-3-yl)-5-methyl-2-(1-methyl-1H-imidazol-2-yl)thieno[2,3-d]pyrimidin-4-yl)amino)methyl)pyrrolidin-2-one]	26 to 50	51 to 75	51 to 75	51 to 75	51 to 75	51 to 75	0 (0% inhibition)	51 to 75	51 to 75	51 to 75	76 to 100			
